Measured values published in patent publication US20250360120A1, “METHODS OF TREATMENT OF DRAVET SYNDROME” (Noema Pharma AG, priority 2023, published 2025).

Test system: Scn1a+/− mice
Experiment: Seizure frequency, seizure freedom and time to first seizure (frontal cortex EEG) in Scn1a+/− mice
Type: in vivo
Conditions: for Odds Ratio of seizure freedom (vs Untreated) / Probability of seizure freedom: GLM binomial; for median time to first seizure: Kaplan-Meier, Untreated group 7 days
Method: Heterozygous deletion of Sca1a in mice (Scn1a+/−) recapitulates several core phenotypes of clinical Dravet syndrome, including temperature-dependent and spontaneous seizures, SUDEP, and behavioral abnormalities. […] As such, Scn1a+/−mice are a favourable model to enable translation of novel ASMs with varied mechanism of action to the clinic.
The experiment was conducted to evaluate the effect of Compound I, CTEP and RO6807794 on seizure frequency, seizure freedom and survival in Scn1a+/− mice.
Frontal cortex recordings were selected as representative of the seizure phenomenology on mice experiencing generalized seizures. EEG headmounts were implanted between P20-22 and recordings were initiated for continuous monitoring for a period of approximately 14-days for the NAM group and PAM group. Individual frontal cortex seizure measurements over time were visually explored and summaries across the time course were calculated. • 1. Seizure frequency
Seizure frequency was measured by count of the number of seizures observed each day. The frequency was analyzed using a Chi-square test (all treatments) and Fisher's Exact test (pairwise treatment comparisons). • 2. Seizure freedom
Seizure freedom was measured with a binary (0 or 1) endpoint, where it was recorded as a […] was recorded across the whole study. Seizure freedom was summarized across all animals into a contingency table and analyzed using a generalized linear model (GLM) with a binomial distribution for the errors and a logit link function. The results were presented as probabilities and odds ratios between groups and 95% confidence intervals. The odd ratio described how much more likely it is for an animal to have no seizures (Seizure freedom=1) in a treated group compared to the untreated group. Analyses were performed using GraphPad Prism 9 (contingency table) and SAS 9.4 (binomial model). • 3. Time to first seizure:
Time to first seizure refers the time recorded as the day on which the first seizure occurred (an observed, uncensored observation), or the final day of recording for that animal if on seizure was observed (a censored observation). Time to first seizure was visualized using a Kaplan-Meier plot and analyzed using a Log-rank (Mantel-Cox) test. Analyses were performed using GraphPad Prism 9. • 4. Total seizure burden
Total seizure burden is sum of the seizure frequency across all study days. • 5. Seizure per day
Seizure per day is measured by the total seizure count divided by the number of study days, wherein a seizure count measurement was adjusted by the number of days the animal was in the study.
Time to first seizure and Seizure per day were explored visually and analyzed using analysis of variance (ANOVA). Results were presented as geometric means, ratios of geometric means, confidence intervals and p-values. An additional non-parametric analysis, Kruskal-Wallis, was explored along with Wilcoxon pairwise comparisons to the Untreated group. The data was also analyzed using a generalized linear model (GLM) with a Poisson distribution for the errors and a log link function. The linear predictor described a model suitable for exploring a fixed effect of treatment group.

[1] = 0.3 mg/kg PO every other day for 28-days
[2] = ANOVA on log10 adjusted scale, 0.3 mg/kg PO every other day for 28-days
[3] = Generalized Linear Model on discrete (count) data, 0.3 mg/kg PO every other day for 28-days
[4] = Kruskal-Wallis with Wilcoxon pairwise tests, 0.3 mg/kg PO every other day for 28-days
[5] = exploratory ANOVA on log10 scale, 0.3 mg/kg PO every other day for 28-days
[6] = 0.3 mg/kg PO once daily for 28-days from P10
[7] = 1 mg/kg PO once daily for 28-days from P10
[8] = ANOVA on log10 adjusted scale, 0.3 mg/kg PO once daily for 28-days from P10
[9] = ANOVA on log10 adjusted scale, 1 mg/kg PO once daily for 28-days from P10
[10] = Generalized Linear Model on discrete (count) data, 0.3 mg/kg PO once daily for 28-days from P10
[11] = Generalized Linear Model on discrete (count) data, 1 mg/kg PO once daily for 28-days from P10
[12] = Kruskal-Wallis with Wilcoxon pairwise tests, 1 mg/kg PO once daily for 28-days from P10
[13] = exploratory ANOVA on log10 scale, 0.3 mg/kg PO once daily for 28-days from P10
[14] = exploratory ANOVA on log10 scale, 1 mg/kg PO once daily for 28-days from P10
[15] = ANOVA on log10 adjusted scale, 0.3 mg/kg IP once daily for 5-days from P21
[16] = Generalized Linear Model on discrete (count) data, 0.3 mg/kg IP once daily for 5-days from P21

SMILES: Cc1nc(C#Cc2ccnc(Cl)c2)c(C)n1-c1ccc(OC(F)(F)F)cc1 [CTEP, reference compound]
- Frequency of animals with At least 1 Seizure [1]: 4
- Frequency of animals with No Seizures (seizure freedom) [1]: 11
- Percent of animals with At least 1 Seizure [1]: 26.7%
- Percent of animals with No Seizures (seizure freedom) [1]: 73.3%
- animals with Seizure Freedom over time (Kaplan-Meier, in words) [1]: more animals with Seizure Freedom for a longer duration
- Seizure per day, % Change compared to untreated group [2]: −79.05%
- Seizure per day, Geometric Mean [2]: 0.026
- Seizure per day, Ratio of Means compared to untreated group [2]: 0.21
- reduction of average seizure per day compared to the Untreated group [2]: 85%
- Odds Ratio of seizure freedom (vs Untreated) [1]: 8.25
- Probability of seizure freedom [1]: 0.73
- reduction of total seizure burden compared to the Untreated group (GLM on discrete (count) data, 0.3 mg/kg PO every other day for 28-days): 62%
- Seizure per day, % Change vs Untreated [3]: −23.56%
- Seizure per day, Geometric Mean [3]: 0.375
- Seizure per day, Ratio of Means vs Untreated [3]: 0.76
- Total Seizure Burden, % Change vs Untreated [3]: −62.47%
- Total Seizure Burden, Geometric Mean [3]: 2.53
- Total Seizure Burden, Ratio of Means vs Untreated [3]: 0.38
- seizure per day rates compared to the Untreated group (in words) [4]: decreased seizure per day rates
- total seizure burden compared to the Untreated group (in words) [4]: lower total seizure burden
- Total Seizure Burden, % Change compared to Untreated group [5]: −82.08%
- Total Seizure Burden, Geometric Mean [5]: 0.32
- Total Seizure Burden, Ratio of Means compared to Untreated group [5]: 0.18
- reduction of total seizure burden compared to the Untreated group [5]: 82%

SMILES: Cc1nc(C#Cc2ccnc(Cl)c2)c(C)n1-c1ccc(F)cc1 [Compound I, 2-chloro-4-[1-(4-fluorophenyl)-2,5-dimethyl-1H-imidazol-4-ylethynyl]pyridine]
- Frequency of animals with At least 1 Seizure [6]: 10
- Frequency of animals with No Seizures (seizure freedom) [6]: 1
- Percent of animals with At least 1 Seizure [6]: 90.9%
- Percent of animals with No Seizures (seizure freedom) [6]: 9.1%
- Frequency of animals with At least 1 Seizure [7]: 3
- Frequency of animals with No Seizures (seizure freedom) [7]: 10
- Percent of animals with At least 1 Seizure [7]: 23.1%
- Percent of animals with No Seizures (seizure freedom) [7]: 76.9%
- animals with Seizure Freedom over time (Kaplan-Meier, in words) [7]: more animals with Seizure Freedom for a longer duration
- chance of seizure freedom (1 mg/kg PO once daily for 28-days from P10, 25% in the Untreated group): 77%
- Seizure per day, % Change compared to untreated group [8]: 183.96%
- Seizure per day, Geometric Mean [8]: 0.349
- Seizure per day, Ratio of Means compared to untreated group [8]: 2.84
- Seizure per day, % Change compared to untreated group [9]: −84.81%
- Seizure per day, Geometric Mean [9]: 0.019
- Seizure per day, Ratio of Means compared to untreated group [9]: 0.15
- reduction of average seizure per day compared to the Untreated group [9]: 79%
- Odds Ratio of seizure freedom (vs Untreated) [6]: 0.3
- Probability of seizure freedom [6]: 0.09
- Odds Ratio of seizure freedom (vs Untreated) [7]: 10
- Probability of seizure freedom [7]: 0.77
- reduction of total seizure burden compared to the Untreated group (GLM on discrete (count) data, 1 mg/kg PO once daily for 28-days from P10): 44%
- Seizure per day, % Change vs Untreated [10]: 85.38%
- Seizure per day, Geometric Mean [10]: 0.910
- Seizure per day, Ratio of Means vs Untreated [10]: 1.85
- Total Seizure Burden, % Change vs Untreated [10]: 87.21%
- Total Seizure Burden, Geometric Mean [10]: 12.64
- Total Seizure Burden, Ratio of Means vs Untreated [10]: 1.87
- Seizure per day, % Change vs Untreated [11]: −46.32%
- Seizure per day, Geometric Mean [11]: 0.263
- Seizure per day, Ratio of Means vs Untreated [11]: 0.54
- Total Seizure Burden, % Change vs Untreated [11]: −44.16%
- Total Seizure Burden, Geometric Mean [11]: 3.77
- Total Seizure Burden, Ratio of Means vs Untreated [11]: 0.56
- median time to first seizure [6]: 2 days
- seizure per day rates compared to the Untreated group (in words) [12]: decreased seizure per day rates
- total seizure burden compared to the Untreated group (in words) [12]: lower total seizure burden
- Total Seizure Burden, % Change compared to Untreated group [13]: 136.21%
- Total Seizure Burden, Geometric Mean [13]: 4.16
- Total Seizure Burden, Ratio of Means compared to Untreated group [13]: 2.36
- Total Seizure Burden, % Change compared to Untreated group [14]: −84.25%
- Total Seizure Burden, Geometric Mean [14]: 0.28
- Total Seizure Burden, Ratio of Means compared to Untreated group [14]: 0.16
- reduction of total seizure burden compared to the Untreated group [14]: 84%

SMILES: CN(C(=O)c1ncc(C#Cc2cccc(F)c2)cn1)C(C)(C)C [RO6807794, reference compound]
- Seizure per day, % Change compared to untreated group [15]: 751.1%
- Seizure per day, Geometric Mean [15]: 1.046
- Seizure per day, Ratio of Means compared to untreated group [15]: 8.51
- seizure per day rates compared to the Untreated group (in words) (GLM on discrete (count) data, 0.3 mg/kg IP once daily for 5-days from P21): statistically significantly increased seizure per day rates
- Seizure per day, % Change vs Untreated [16]: 407.47%
- Seizure per day, Geometric Mean [16]: 2.490
- Seizure per day, Ratio of Means vs Untreated [16]: 5.07
- median time to first seizure (0.3 mg/kg IP once daily for 5-days from P21): 3 days
- seizure per day rates compared to the Untreated group (in words) (Kruskal-Wallis with Wilcoxon pairwise tests, 0.3 mg/kg IP once daily for 5-days from P21): increased seizure per day rates
